Results: US9476053B2, “Methods and compositions for inhibition of immune responses and autoimmunity” (Dynavax Technologies Corporation, priority 2007, dated 2016)
Read-outs that look alike come from different tables or passages of the source.

Legend:
[1] = system: plasmacytoid dendritic cells (PDCs); assay type: cell-based, human
[2] = system: IFN-α production in PDC cells; assay type: cell-based, human
PDC [3] = experiment: In vivo PDC sensitivity to glucocorticoid in 129 mice treated with DEX plus CpG plus IRS; parameters: species or system mouse; conditions: DEX 1000 μg plus CpG 50 μg plus IRS 100 μg
Experimental: To investigate whether IRPs comprising an IRS restore in vivo PDC sensitivity to glucocorticoid in mice treated with CpG-TLR9 ligand, 129 mice were treated with the glucocorticoid Dexthametasone (DEX; 1000 μg) alone or DEX (1000 μg) plus a immunostimulatory sequence CpG-C ISS C274 (“ISS”; […]. Viability of the different cell type was evaluated as described in Example 9.
Cells were identified to be PDC by the surface presence of B220, CD11c, and PDCA1 marker. Myeloid dendritic cells were identified as to be CD11c positive and B220 negative. B-cells were identified as B220 positive cells and CD11c negative. Monocytes were identified as CD11b positive. Similar results were obtained using blood (data not shown). […] IRPs comprising an IRS restored in vivo PDC sensitivity to glucocorticoid in mice treated with CpG-TLR9 ligand.

PDC [4] = experiment: Glucocorticoid induced cell death in lupus prone (NZB×NZW)F1 mice treated with DEX plus IRS; assay type: in vivo, mouse; conditions: DEX 500 μg plus IRS 100 μg, spleen
Experimental: Next, the ability of immunoregulatory sequences to restore responsiveness to glucocorticoid treatment in lupus prone mice (NZB×NZW)F1 was evaluated.
To test whether IRPs comprising an IRS restore sensitiveness to glucocorticoid induced cell death in autoimmune prone animals, Lupus prone mice (NZB×NZW)F1 mice treated with 500 μg of Dexthametasone (DEX) alone or DEX (500 μg) plus IRS (SEQ ID NO: 123) (100 μg) or DEX (500 μg) plus IRS (SEQ ID NO: 123) (100 μg) or DEX (500 μg) plus CTRL oligo (100 μg). Viability of the different cell type was evaluated as described in Example 9.
Cells were identified to be PDC by the surface presence of B220, CD11c, and PDCA1 marker. Myeloid dendritic cells were identified as to be CD11c positive and B220 negative. B-cells were identified as B220 positive cells and CD11c negative. Monocytes were identified as CD11b positive. […] IRS restored sensitiveness to glucocorticoid induced cell death in autoimmune prone animals.

[5] = system: cells infiltrating inflamed skin; experiment: Tape-stripping skin inflammation in 129 mice, gene expression of infiltrating cells by Taqman; assay type: in vivo, mouse; conditions: IRS 100 μg s.c. or i.v. or locally
Experimental: PDC infiltrate the inflamed mouse skin. 129 mice were mechanical stripped 12 times with tape or left untreated as control. After 16 hr mice were euthanized and the skin was collected and digested for 1 hr with a solution containing Liberase 0.28 u/ml and the cellular content was analyzed by flow cytometry. A) depicts an example of the facs plot of plasmacytoid dendritic cells PDC were defined to be CD11c+, […]) Cells infiltrating the skin were stimulated in vitro with an immunostimulatory sequence […] ID NO:125), wherein upper case letters represent PS […] lower case letters represent PO linkages) (1 μM) and IFN-α was measured in the supernatant by ELISA. Cells infiltrating inflamed skin show an IFN-α inflammatory gene signature which is preventable by treatment with IRS. Skin of 129 mice was mechanical inflamed by tape stripping as described in FIG. 39. Mice were stripped only or stripped and treated with IRS (SEQ ID NO:123) (100 μg) either administered s.c. or i.v. or locally on the inflamed skin. A group of mice was left completely untreated to serve as controls. Skin was processed as described in FIG. 39 and RNA was extracted from the infiltrating cells using an RNA kit from Quiagen according to manufacture instruction. Gene expression of specific genes was measured by Taqman. […] IRS can target skin inflammation in vivo.

[6] = influenza virus and SEQ ID NO:123 compared to influenza virus alone, hydroxycortisone 1×10^−8 M
[7] = influenza virus, no hydroxycortisone present

“5′-TGCTCCTGGAGGGGTTGT-3′ (chemistry not given here) [SEQ ID NO:123]” was tested, and the “reduction in the amount of hydroxycortisone necessary to achieve 50% death of PDCs” value (shortened to “reduction … to achieve 50% death of PDCs”) ([1]; HSV plus SEQ ID NO:123 versus HSV) was 37 fold, the “reduction … to achieve 50% death of PDCs” value ([1]; ISS plus SEQ ID NO:123 versus ISS) was 23 fold and the “percent survival of PDCs compared to influenza virus alone” value ([1]; combination with influenza virus, hydroxycortisone 1×10^−6 M, 48H) was “statistically significant decrease”. For the same substance, the “decrease in survival of PDC cells” value [1, 6] was 23%, the “reduction … to achieve 50% death of PDCs” value ([1]; influenza virus plus SEQ ID NO:123 versus influenza virus) was 204 fold and the “difference in PDC survival” value [1, 7] was “no difference”. For the same substance, the IFN-α production inhibited [2, 6] was 92%, the IFN-α inhibition [2, 7] was “completely inhibited” and the “in vivo PDC sensitivity to glucocorticoid in mice treated with CpG-TLR9 ligand” value (PDC [3]) was “restored”. For the same substance, the “sensitiveness to glucocorticoid induced cell death in autoimmune prone animals” value (PDC [4]) was “restored” and the “IFN-α inflammatory gene signature of cells infiltrating inflamed skin” value [5] was “preventable”.
